How the values were obtained:
Type in all cases: functional, organism-based
Conditions in all cases: 3D7
[1] = test system: Plasmodium falciparum; test: MMV: Modified 3H-Hyoxanthine uptake assay; 1% O2, 5% CO2 in N2.
[2] = test system: Plasmodium falciparum; test: MMV: 3H-Hyoxanthine uptake assay; 5% O2, 5% CO2 in N2.
[3] = test system: Plasmodium falciparum; test: MMV: 3H-Hyoxanthine uptake assay; RPMI 1640 (Invitrogen cat#11875-093) with Sodium Bicarbonate (NaHCO3) […].
[4] = test system: Plasmodium falciparum; test: MMV: Modified 3H-Hyoxanthine uptake assay; RPMI 1640 (Invitrogen cat#23400-013) without Sodium Bicarbonate (NaHCO3).

Row | Compound | IC50 [1] | IC50 [2] | IC50 [3] | IC50 [4]
1 | Cc1ccc(-c2cc3nc4c(c(O)n3n2)CCCC4)cc1 | > 1000 nM | > 1000 nM | 889 nM | 1260 nM
2 | CCOC(=O)c1cn(CC)c2cc(N(C)CCc3ccc(OC)c(OC)c3)c(F)cc2c1=O | 85 nM | 345 nM |  | 
3 | COc1ccc(C2=C(c3ccc(OC)cc3)C3(c4ccccc4)C(=O)C2(c2ccccc2)C2C(=O)N(c4ccc(C)cc4)C(=O)C23)cc1 (stereo unspecified) | > 1000 nM | > 1000 nM | > 1000 nM | > 1000 nM
4 | CCC1(C)CC(CCNCc2ccccc2O)(c2ccc(C)cc2)CCO1 (stereo unspecified) | 236 nM | 540 nM | 266 nM | 277 nM
5 | CCN(CC)CCNc1ccnc2cc(Cl)ccc12 | 18 nM | 40 nM | 46 nM | 94 nM
6 | Fc1ccc2[nH]c3c(NCCCN4CCOCC4)ncnc3c2c1 | > 1000 nM | > 1000 nM | > 1000 nM | > 1000 nM
7 | COc1ccc(C=C2SC(=N)N(c3ccccc3OC)C2=O)cc1 |  | 531 nM |  | 167 nM
8 | CCN1CCCC1CNc1[nH]cnc2c3cc(Cl)ccc3nc1-2 (stereo unspecified) | > 1000 nM | > 1000 nM | > 1000 nM | > 1000 nM
9 | CCOC(=O)c1cnc2ccc(CC)cc2c1O | > 1000 nM | > 1000 nM | 301 nM | 408 nM
10 | Cc1ccc(-c2cc3c(SCC(=O)Nc4cc(C(F)(F)F)ccc4Cl)nccn3n2)cc1 | > 500 nM | > 500 nM | > 500 nM | > 500 nM
11 | CCOC(=O)C1=C(c2ccccc2)N=c2sc(=Cc3cc(C)n(-c4ccc(F)cc4)c3C)c(=O)n2C1c1cccc(OC)c1OC (stereo unspecified) | > 1000 nM | > 1000 nM | > 1000 nM | > 1000 nM
12 | Cc1ccc(-c2cc3c(nn2)-c2ccccc2C3=O)cc1 | > 500 nM | > 500 nM | > 500 nM | > 500 nM
13 | CC1CN(C(=O)c2sc3ccccc3c2Cl)CC(C)O1 (stereo unspecified) | 100 nM | 79 nM | 73 nM | 71 nM
14 | COc1cccc(C=Cc2nc(=O)c3ccccc3o2)c1OC | > 500 nM | > 500 nM | > 500 nM | > 500 nM
15 | CCCCCC(=O)N1c2ccccc2N=C2CC(c3ccc(OC)c(OC)c3)CC(O)=C2C1c1ccc(C(F)(F)F)cc1 (stereo unspecified) |  |  | 129 nM | 144 nM
16 | c1ccc2cc3c(Nc4ccc(N5CCOCC5)cc4)ccnc3cc2c1 | > 1000 nM | > 1000 nM | 1440 nM | > 1000 nM
17 | COc1ccccc1CNC(=O)CCn1c(=O)[nH]c2ccsc2c1=O |  |  | 367 nM | 432 nM
18 | COc1cc(OC)c(N(C)C(=O)c2cc3c(s2)-c2ccccc2S(=O)(=O)C3)cc1Cl | > 500 nM | > 500 nM | > 500 nM | > 500 nM
19 | CN1CCN(c2ccc(Nc3c4ccccc4nc4ccccc34)cc2)CC1 | 76 nM | 117 nM | 98 nM | 269 nM
20 | Cc1cc(Nc2ccc(Cl)cc2)n2nc(C(F)(F)F)nc2n1 | 70 nM | 349 nM | 112 nM | 169 nM
21 | Oc1ccccc1CNCC12CC3CC(CC(C3)C1)C2 | 63 nM | 136 nM | 104 nM | 121 nM
22 | CCN(CC)CCNc1ncnc2c1[nH]c1ccc(Cl)cc12 | 266 nM | 314 nM | 326 nM | 851 nM
23 | COc1ccc(-c2nc3cc(Cc4ccc5[nH]c(-c6ccc(OC)cc6)nc5c4)ccc3[nH]2)cc1 | > 1000 nM | > 1000 nM | > 1000 nM | > 1000 nM
24 | CCOC(=O)c1c(NC(=O)c2ccccc2)sc2c(O)c(CN(CC)CC)ccc12 | > 1000 nM | > 1000 nM |  | 
25 | CCCc1c(CC)c(=N)c2ccccc2n1C | 65 nM | 397 nM | 211 nM | 355 nM

Row | Compound | IC50 [1] | IC50 [2] | IC50 [3] | IC50 [4]
26 | Cc1ccc(N2C3c4ccccc4N(S(=O)(=O)c4ccc(C)cc4)C2c2ccccc2N3S(=O)(=O)c2ccc(C)cc2)cc1 | > 500 nM | > 500 nM | > 500 nM | > 500 nM
27 | COc1ccc(NC(=O)C2c3ccccc3C(=O)N(CC(C)C)C2c2cccs2)cc1 (stereo unspecified) | 211 nM | 343 nM | 262 nM | 370 nM
28 | C=CC12CCN(CC1)C(C(O)c1ccnc3ccc(OC)cc13)C2 (stereo unspecified) |  |  | 21 nM | 40 nM
29 | O=C(O)C1Cc2c([nH]c3ccccc23)C(c2ccc(Cl)cc2Cl)N1 (stereo unspecified) | > 1000 nM | > 1000 nM | > 1000 nM | > 1000 nM
30 | COc1ccc(-c2nc(NC(=O)CS(=O)(=O)c3ccc(F)cc3)sc2C)cc1 |  |  | 192 nM | 464 nM
31 | CCC(c1ccccc1)c1nn2c(-c3cccs3)nnc2s1 (stereo unspecified) | 66 nM | 415 nM | 150 nM | 181 nM
32 | CN(C)CCCNc1c2ccccc2nc2ccccc12 | 59 nM | 360 nM | 190 nM | 594 nM
33 | CCN1CCN(Cc2ccc(NC(=O)c3cc4ccc5cccnc5c4[nH]3)cc2)CC1 | 497 nM | 422 nM | 582 nM | 674 nM
34 | Cc1ccc(N2C(=O)C3C(C2=O)C2(c4ccccc4)C(=O)C3(c3ccccc3)C(c3ccccc3)=C2c2ccccc2)cc1 (stereo unspecified) | > 1000 nM | > 1000 nM | > 1000 nM | > 1000 nM
35 | Cc1cc(NCCN2CCCCC2)c2ccc3ccccc3c2n1 | 132 nM | 489 nM | 127 nM | 219 nM
36 | COc1ccc(Br)cc1C1Nc2ccc3ccccc3c2C2=C1C(=O)CC(c1ccccc1)C2 (stereo unspecified) | > 1000 nM | > 1000 nM | 783 nM | 710 nM
37 | COc1ccc(-n2ccnc2SCC(=O)Nc2cc(C)ccc2C)c(OC)c1 | 431 nM | 793 nM | > 1000 nM | > 1000 nM
38 | COc1ccc(C(=O)Nc2nonc2-c2ccc(OC)c(OC)c2)cc1Cl | > 1000 nM | > 1000 nM | > 1000 nM | > 1000 nM
39 | CCCCCCOC(=O)C1=C(C)NC(=O)NC1c1ccccc1F (stereo unspecified) | > 1000 nM | > 1000 nM | > 1000 nM | > 1000 nM
40 | Cc1cccc(Nc2nc(N)c3ccccc3n2)c1 | 230 nM | 299 nM | 283 nM | 332 nM
41 | CCOc1cc2c(cc1OCC)C(c1cc(OC)c(O)cc1Cl)NCC2 (stereo unspecified) | 568 nM | 374 nM | 746 nM | 982 nM
42 | CN(C)c1ccc(C=Cc2nc(=O)c3ccccc3o2)cc1 | > 500 nM | > 500 nM | 366 nM | 295 nM
43 | CCn1c(CN2CCN(Cc3ccccc3)CC2)nc2cc(NC(=O)c3cccs3)ccc21 |  |  | 174 nM | 186 nM
44 | CCOC(=O)c1c(C)n(-c2ccc(Cl)cc2)c2ccc(OC(=O)C=Cc3ccccc3)cc12 | > 1000 nM | > 1000 nM | > 1000 nM | > 1000 nM
45 | COc1ccc2c(c1)OC(O)(C(F)(F)C(F)(F)F)CC2=O (stereo unspecified) | 702 nM | 443 nM | 246 nM | 204 nM
46 | O=C(NCC(c1ccsc1)N1CCCCCC1)c1ccc(C(F)(F)F)cc1 (stereo unspecified) |  |  | 425 nM | 1120 nM
47 | c1ccc(Cn2c(N=Nc3c(Nc4ccccc4)ccc4ccccc34)nc3ccccc32)cc1 | > 500 nM | > 500 nM | 125 nM | 64 nM
48 | COc1ccc(-c2c(C)nn3c(N)c(C#N)cnc23)cc1OC |  |  | 330 nM | 457 nM
49 | CCCc1cc(O)c2c3c(c(=O)oc2c1)CN(C)CC3 | > 1000 nM | > 1000 nM |  | 
50 | Cc1cc(C)c2c(c1)OCN(Cc1ccccc1Cl)C2 |  |  | 276 nM | 362 nM
